Experimental findings from PMC7465190, “Inhibition of Tyrosyl-DNA Phosphodiesterase 1 by Lipophilic Pyrimidine Nucleosides” (Molecules, 2020) are described below.

The term CC50 denotes the concentration at which the toxic effect on the cells reaches its halfway point.

Entries after “also recorded” stand apart in the source; their conditions may differ.

Series [1] can be described thus: Intrinsic cytotoxicity, EZ4U Cell Proliferation and Cytotoxicity Assay. In kind it is cell-based, human. Conditions: human, HeLa cells (cervical cancer), 3 days, EZ4U assay. The protocol:
(§1) First, we assessed the toxicity of the compounds to HeLa cells (cervical cancer cells). Analysis of the intrinsic cytotoxicity of the compounds was examined in the EZ4U Cell Proliferation and Cytotoxicity Assay (Biomedica, Austria). The tested compounds were added to the medium (the volume of added reagents was 1/100 of the total volume of the culture medium, and the amount of DMSO (dimethyl sulfoxide) was 1% of the final volume), and the cell culture was monitored for 3 days. Control cells were grown in the presence of 1% DMSO. Intrinsic cytotoxicity of the compounds was either absent or negligible at concentrations up to 100 μM (>80% live cells) with the exception of compounds 2b, 2c, and 7, in the presence of which, at a concentration of 100 μM, 30–45% of the cells died (Table 1 and Figure 1).
(§2) Intrinsic toxicity of the compounds to human cell line HeLa (cervical cancer) was examined by means of the EZ4U Cell Proliferation and Cytotoxicity Assay (Biomedica, Wien, Austria), according to the manufacturer’s protocols. The cells were grown in Iscove’s modified Dulbecco’s medium (IMDM) with 40 μg/mL gentamicin, 50 IU/mL penicillin, 50 μg/mL streptomycin (MP Biomedicals), and 10% of fetal bovine serum (Biolot) in a 5% CO2 atmosphere. After formation of a 30–50%-confluent monolayer, one of the tested compounds was added to the medium (the volume of the added reagents was 1/100 of the total volume of the culture medium, and the amount of DMSO was 1% of the final volume), and the cell culture was monitored for 3 days. Control cells were grown in the presence of 1% DMSO. To assess the influence of the inhibitors on the cytotoxic effect of topotecan, the latter from the manufacturer ACTAVIS GROUP PTC ehf. (Bucharest, Romania) was used. First of all, 50% cytotoxic concentrations of topotecan and of each inhibitor were determined to attain a defined single-agent effect. Second, three independent tests were performed with each inhibitor in combination with topotecan.

The target in a further series is Tdp1 (Homo sapiens, UniProt Q9NUW8). Briefly: Real-time detection of Tdp1 activity (fluorophore-quencher oligonucleotide biosensor). In kind it is biochemical. Conditions: 1.5 nM purified Tdp1, 50 nM biosensor, 26 °C, three independent experiments; read-out: IC50 (inhibition of Tdp-1). The source says:
Previously, we designed a real-time oligonucleotide biosensor based on the capability of Tdp1 to remove fluorophore quenchers from the 3′ end of DNA [27]. The single-stranded substrate was a 16-mer oligonucleotide containing both a 5′-FAM fluorophore donor and a quenching 3′-BHQ moiety. When the quencher is removed by Tdp1, FAM fluorescence flares up and can be detected by a fluorimeter. Fluorescence intensity diminishes in the presence of an inhibitor; curves of the obtained Tdp1 activity versus inhibitor concentration can be used to calculate IC50 values. We also investigated some structurally related compounds obtained by previously developed methods; these compounds feature a modification either in a carbohydrate or heterocyclic moiety (Table 1).
This procedure was reported in our previous work. The approach consists of fluorescence intensity measurement in a reaction of quencher removal from a fluorophore quencher–coupled DNA oligonucleotide catalyzed by Tdp1 in the presence of an inhibitor (the control samples contained 1% of DMSO). The reaction mixtures (200 μL) contained Tdp1 buffer (50 mM Tris-HCl pH 8.0, 50 mM NaCl, and 7 mM β-mercaptoethanol), 50 nM biosensor, an inhibitor being tested, and purified Tdp1 (1.5 nM). The biosensor was a single-stranded oligonucleotide (5′-[FAM] AAC GTC AGGGTC TTC C [BHQ]-3′) containing a fluorophore at the 5′ end (5,6-FAM) and Black Hole Quencher 1 (BHQ) at the 3′ end and was synthesized in the Laboratory of Biomedical Chemistry at the Institute of Chemical Biology and Fundamental Medicine (Novosibirsk, Russia).
The reactions were incubated at a constant temperature of 26 °C on a POLARstar OPTIMA fluorimeter (BMG LABTECH, GmbH, Ortenberg, Germany) to measure fluorescence every 55 s (ex. 485/em. 520 nm) during the linear phase (here, data from minute 0 to minute 8). The values of IC50 were determined using a six-point concentration response curve in three independent experiments and were calculated using MARS Data Analysis 2.0 (BMG LABTECH).

Series [2] deals with HeLa cells. The series can be described thus: Cytotoxicity in combination with topotecan, EZ4U assay. In kind it is cell-based. Conditions: for change of cytotoxicity of the compound in the presence of topotecan (synergy): compound 1, 5, 20, 100 μM with 2 μM topotecan, Figure 2; for sensitizing effect on cytotoxicity of topotecan: Figure 3. The method, then: To study the influence of the inhibitors on the cytotoxic effect of topotecan, the latter from the manufacturer ACTAVIS GROUP PTC ehf. was used. To select a nontoxic but effective concentration of the nucleoside compounds, we investigated their cytotoxicity in the presence of 2 μM topotecan (concentration causing the death of half the HeLa cells). Three independent cytotoxicity assays were performed with each inhibitor in combination with topotecan. For the cells treated with a nucleoside derivative alone, values in the control wells treated with 1% DMSO were set to 100% viability. For the cells treated with a combination of the drugs, the viability of cells treated only with topotecan was set to 100%.
as §2

In series [3] the test system is HeLa cells. Briefly: Intrinsic cytotoxicity, EZ4U Cell Proliferation and Cytotoxicity Assay. In kind it is cell-based, human. The following applies: for cells died: compound at 100 μM, 3 days. The method, then: as §1, §2
Where [4] appears, read: compound at 20 μM, various doses of topotecan.

Tdp1, sequence (Q9NUW8 whole entry): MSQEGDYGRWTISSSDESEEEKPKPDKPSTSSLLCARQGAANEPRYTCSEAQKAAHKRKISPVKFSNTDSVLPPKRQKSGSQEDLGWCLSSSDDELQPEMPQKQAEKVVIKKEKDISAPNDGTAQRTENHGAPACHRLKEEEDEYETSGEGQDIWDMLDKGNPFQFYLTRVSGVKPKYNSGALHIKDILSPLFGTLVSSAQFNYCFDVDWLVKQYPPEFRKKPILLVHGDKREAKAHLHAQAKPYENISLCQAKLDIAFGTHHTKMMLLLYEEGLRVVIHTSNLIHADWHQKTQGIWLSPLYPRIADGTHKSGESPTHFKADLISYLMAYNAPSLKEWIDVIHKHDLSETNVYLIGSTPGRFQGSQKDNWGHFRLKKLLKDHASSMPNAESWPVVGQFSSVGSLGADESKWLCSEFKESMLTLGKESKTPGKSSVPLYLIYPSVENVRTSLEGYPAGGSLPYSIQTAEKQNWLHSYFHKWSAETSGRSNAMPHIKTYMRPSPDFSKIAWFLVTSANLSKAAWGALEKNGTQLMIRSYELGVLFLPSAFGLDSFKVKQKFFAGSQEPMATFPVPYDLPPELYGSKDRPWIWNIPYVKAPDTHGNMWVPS

With `O=C(OC[C@H]1O[C@@H](n2cc(I)c(=O)[nH]c2=O)[C@H](OC(=O)c2ccccc2)[C@@H]1OC(=O)c1ccccc1)c1ccccc1` [Compound 2d, 2′,3′,5′-tri-O-benzoyl-5-iodouridine], the CC50 at 3 days in series [1] is over 100 µM. In addition, the IC50 on Tdp1 is 0.6 ± 0.9 µM. The “change of cytotoxicity of the compound in the presence of topotecan (synergy)” value (“change of cytotoxicity of the compound” for short) in the series with HeLa cells [2] was “Inactive”.

For `O=C(OC[C@H]1O[C@@H](n2cccnc2=O)[C@H](OC(=O)c2ccccc2)[C@@H]1OC(=O)c1ccccc1)c1ccccc1` [Compound 6, 1-(2′,3′,5′-Tri-O-benzoyl-β-D-ribofuranosyl)-2-pyrimidone], the CC50 at 3 days in series [1] is over 100 µM. Further, on Tdp1, the IC50 amounted to 6 ± 0.7 µM. Besides, in the series with HeLa cells [2], the “change of cytotoxicity of the compound” value is listed as “statistically insignificant”.

For `O=C(OCC1OC(n2cc(F)c(=O)[nH]c2=O)C(OC(=O)c2ccccc2)C1OC(=O)c1ccccc1)c1ccccc1` (centres unmarked) [Compound 2b, 2′,3′,5′-Tri-O-benzoyl-5-fluorouridine], in series [1], the half-maximal cytotoxic concentration (CC50) at 3 days is over 100 µM. Further, the cells died in the series on HeLa cells [3] is 30–45%. For the same compound, the IC50 at Tdp1 came out at 8.5 ± 1.4 µM. In addition, in the series on HeLa cells [2], the “change of cytotoxicity of the compound” value is listed as “Inactive”.

Consider `O=c1[nH]c(=O)n([C@@H]2O[C@H](CO)[C@@H](O)[C@H]2O)cc1F` [Compound 1b, 5-Fluorouridine, reference compound], for which, on Tdp1, the IC50 is over 50 µM.

For `Nc1ccn([C@@H]2O[C@H](COC(=O)c3ccccc3)[C@@H](OC(=O)c3ccccc3)[C@H]2OC(=O)c2ccccc2)c(=O)n1` [Compound 8, 2′,3′,5′-tri-O-benzoylcytidine], the CC50 at 3 days in series [1] was over 100 µM. For the same compound, the IC50 on Tdp1 amounted to 4.3 ± 0.7 µM. Also, the “change of cytotoxicity of the compound” value in the series on HeLa cells [2] is listed as “significantly (p = 0.05, Mann–Whitney U test) enhanced; also recorded: synergistic effect with topotecan; also recorded: enhanced the cytotoxicity”. In addition, the “sensitizing effect on cytotoxicity of topotecan” value (“sensitizing effect” for short) with HeLa cells [2] (setting [4]) is recorded as “doubled the cytotoxicity of topotecan; also recorded: doubling topotecan’s activity”.

In the case of `O=c1[nH]c(=O)n([C@@H]2O[C@H](CO)[C@@H](O)[C@H]2O)cc1Br` [Compound 1c, 5-bromouridine, reference compound], the IC50 at Tdp1 was over 50 µM.

On to `O=C(OC[C@H]1O[C@@H](n2cc(Br)c(=O)[nH]c2=O)[C@H](OC(=O)c2ccccc2)[C@@H]1OC(=O)c1ccccc1)c1ccccc1` [Compound 2c, 2′,3′,5′-Tri-O-benzoyl-5-bromouridine], for which, in series [1], the CC50 at 3 days was over 100 µM. In the series with HeLa cells [3], the cells died is recorded as 30–45%. The IC50 at Tdp1 was found to be 1.5 ± 0.9 µM. Moreover, the “change of cytotoxicity of the compound” value in the series on HeLa cells [2] is reported as “Inactive”.

Regarding `Cc1cn([C@@H]2O[C@H](CO)[C@@H](O)[C@H]2O)c(=O)[nH]c1=O` [Compound 1e, 5-Methyluridine (Ribothymidine), reference compound], the IC50 on Tdp1 was over 50 µM.

Turning to `Cc1cc(=O)[nH]c(=O)n1[C@@H]1O[C@H](COC(=O)c2ccccc2)[C@@H](OC(=O)c2ccccc2)[C@H]1OC(=O)c1ccccc1` [Compound 2g, 2′,3′,5′-Tri-O-benzoyl-6-methyluridine], the CC50 at 3 days in series [1] is over 100 µM. Moreover, the IC50 at Tdp1 turned out to be 3.4 ± 0.2 µM. For the same compound, the “change of cytotoxicity of the compound” value in the series on HeLa cells [2] was “significantly (p = 0.05, Mann–Whitney U test) enhanced; also recorded: synergistic effect with topotecan; also recorded: enhanced the cytotoxicity”. Also, the “sensitizing effect” value with HeLa cells [2] (setting [4]) is reported as “doubled the cytotoxicity of topotecan; also recorded: doubling topotecan’s activity”.

For the compound `O=C(OCC1OC(n2cc(Cl)c(=O)[nH]c2=O)C(OC(=O)c2ccccc2)C1OC(=O)c1ccccc1)c1ccccc1` (centres unmarked) [Compound 2f, 2′,3′,5′-Tri-O-benzoyl-5-chlorouridine], the CC50 at 3 days in series [1] is over 100 µM. Besides, the IC50 on Tdp1 amounted to 3.6 ± 1.1 µM. Besides, in the series on HeLa cells [2], the “change of cytotoxicity of the compound” value was “Inactive”.

With `CC[C@@]1(O)C(=O)OCc2c1cc1n(c2=O)Cc2cc3c(CN(C)C)c(O)ccc3nc2-1` [topotecan, reference compound], the IC50 in the series on HeLa cells [3] (Homo sapiens, EZ4U assay, read-out: concentration causing the death of half the HeLa cells) turned out to be 2 µM.

On to `O=C(O[C@@H]1[C@H](OC(=O)c2ccccc2)[C@@H](CO)O[C@H]1n1ccc(=O)[nH]c1=O)c1ccccc1` [Compound 4a, 2′,3′-di-O-benzoyluridine], for which, in series [1], the CC50 at 3 days is over 100 µM. In addition, the IC50 on Tdp1 amounted to 23 ± 6 µM.

Take `O=c1ccn([C@@H]2O[C@H](CO)[C@@H](O)[C@H]2O)c(=O)[nH]1` [Compound 1a, Uridine, reference compound]: on Tdp1, the IC50 is over 50 µM.

Consider `CC(=O)O[C@@H]1O[C@H](COC(=O)c2ccccc2)[C@@H](OC(=O)c2ccccc2)[C@H]1OC(=O)c1ccccc1` [Compound 9, 1-O-acetyl-2,3,5-tri-O-Bz-β-D-Rib], for which the IC50 at Tdp1 was determined as 4.2 ± 0.3 µM.

For `O=c1[nH]c(=O)n([C@@H]2O[C@H](CO)[C@@H](O)[C@H]2O)cc1Cl` [Compound 1f, 5-Chlorouridine, reference compound], the IC50 on Tdp1 is over 50 µM.

Take `O=c1[nH]c(=O)n([C@@H]2O[C@H](CO)[C@@H](O)[C@H]2O)cc1I` [Compound 1d, 5-Iodouridine, reference compound]: the IC50 on Tdp1 is over 50 µM.

Regarding `O=C(OC[C@H]1O[C@@H](n2ccc(=O)[nH]c2=O)[C@H](O)[C@@H]1O)c1ccccc1` [Compound 3a, 5′-O-benzoyluridine], at Tdp1, the IC50 was over 100 µM.

Consider `O=C(OC[C@H]1O[C@@H](n2ccc(=O)nc2)[C@H](OC(=O)c2ccccc2)[C@@H]1OC(=O)c1ccccc1)c1ccccc1` [Compound 5, 1-(2′,3′,5′-Tri-O-benzoyl-β-D-ribofuranosyl)-4-pyrimidone], for which the IC50 at Tdp1 was 18 ± 1 µM. Moreover, in the series with HeLa cells [2], the “change of cytotoxicity of the compound” value is on record as “significant only at the maximum concentration, 100 μM; also recorded: at a concentration of 20 μM, no synergy with topotecan was observed; also recorded: enhanced the cytotoxicity”. In addition, in the series on HeLa cells [2] (compound at 50 μM, various doses of topotecan (significant at 10 μM)), the “sensitizing effect” value was “weak sensitizing effect”.

As for `Cc1cn([C@@H]2O[C@H](COC(=O)c3ccccc3)[C@@H](OC(=O)c3ccccc3)[C@H]2OC(=O)c2ccccc2)c(=O)[nH]c1=O` [Compound 2e, 2′,3′,5′-Tri-O-benzoyl-5-methyluridine], the half-maximal cytotoxic concentration (CC50) at 3 days in series [1] was over 100 µM. In addition, at Tdp1, the IC50 amounted to 2.7 ± 0.6 µM. Further, in the series on HeLa cells [2], the “change of cytotoxicity of the compound” value was “Inactive”.

On to `O=C(OC[C@H]1O[C@@H](n2ccc(=O)[nH]c2=O)[C@H](OC(=O)c2ccccc2)[C@@H]1OC(=O)c1ccccc1)c1ccccc1` [Compound 2a, 2′,3′,5′-tri-O-benzoyluridine], for which the IC50 on Tdp1 was 6.3 ± 0.4 µM. In addition, the “change of cytotoxicity of the compound” value in the series with HeLa cells [2] is listed as “Inactive”.
